Measured values reported in patent US20100267561A1, “HERBICIDAL PYRIDAZINONE DERIVATIVES” (priority 2007, published 2010).

Key:
Assay in all cases: Test B pre-/postemergence plant response
Assay type in all cases: in vivo
Settings in all cases: Preemergence
[1] = system: wheat (Triticum aestivum)
Method in brief: (§1)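 Seeds were sown and sprayed preemergence, while plants at 2 to 18 cm (1- to 4-leaf stage) got postemergence sprays. Compounds were formulated in a non-phytotoxic solvent mixture with surfactant. After 13 to 15 days in a greenhouse, injury was rated visually against untreated controls, 0 (no effect) to 100 (complete control).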

[2] = system: surinam grass (Brachiaria decumbens)
Method in brief: as §1

kochia (Kochia scoparia) = system: kochia (Kochia scoparia)
Method in brief: as §1

[3] = system: morningglory (Ipomoea coccinea)
Method in brief: as §1

[4] = system: bermudagrass (Cynodon dactylon)
Method in brief: as §1

[5] = system: cocklebur (Xanthium strumarium)
Method in brief: as §1

[6] = system: lambsquarters (Chenopodium album)
Method in brief: as §1

[7] = system: common ragweed (Ambrosia elation)
Method in brief: as §1

[8] = system: Italian ryegrass (Lolium multiflorum)
Method in brief: as §1

[9] = system: common (oilseed) sunflower (Helianthus annuus)
Method in brief: as §1

soybean (Glycine max) = system: soybean (Glycine max)
Method in brief: as §1

[10] = system: velvetleaf (Abutilon theophrasti)
Method in brief: as §1

[11] = system: johnsongrass (Sorghum halepense)
Method in brief: as §1

[12] = system: goosegrass (Eleusine indica)
Method in brief: as §1

Cc1cn(-c2ccc(Cl)cc2)nc1-c1c(O)cnn(C)c1=O [Compound 30, 4-[1-(4-chlorophenyl)-4-methyl-1H-pyrazol-3-yl]-5-hydroxy-2-methyl-3(2H)-pyridazinone]
Wheat plant response rating ([1]; 8 g ai/ha, scale 0 to 100): 0 | plant injury at 16 g/ha ([1]; Triticum aestivum, pre-emergence, 16 g ai/ha, scale 0 to 100 (0 no effect, 100 complete control), read-out: Plant response rating, Wheat): 0% | plant injury at 31 g/ha ([1]; Triticum aestivum, pre-emergence, 31 g ai/ha, 0 to 100 scale, 0 no effect, 100 complete control, read-out: Plant response rating, Wheat): 0% | plant injury at 62 g/ha ([1]; Triticum aestivum, pre-emergence, 62 g ai/ha, scale 0 to 100, read-out: Plant response rating, Wheat): 10% | Surinam Grass plant response rating ([2]; 8 g ai/ha, scale 0 to 100): 10 | pest or weed control at 16 g/ha ([2]; Urochloa decumbens, pre-emergence, 16 g ai/ha, scale 0 to 100 (0 no effect, 100 complete control), read-out: Plant response rating, Surinam Grass): 60% | pest or weed control at 31 g/ha ([2]; Urochloa decumbens, pre-emergence, 31 g ai/ha, 0 to 100 scale, 0 no effect, 100 complete control, read-out: Plant response rating, Surinam Grass): 90% | pest or weed control at 62 g/ha ([2]; Urochloa decumbens, pre-emergence, 62 g ai/ha, scale 0 to 100, read-out: Plant response rating, Surinam Grass): 95% | Plant response rating, Kochia (kochia (Kochia scoparia); 16 g ai/ha, scale 0 to 100 (0 no effect, 100 complete control)): 0 | Plant response rating, Kochia (kochia (Kochia scoparia); 31 g ai/ha, 0 to 100 scale, 0 no effect, 100 complete control): 0 | Plant response rating, Kochia (kochia (Kochia scoparia); 62 g ai/ha, scale 0 to 100): 0 | Kochia plant response rating (kochia (Kochia scoparia); 8 g ai/ha, scale 0 to 100): 0 | pest or weed control at 16 g/ha ([3]; Ipomoea, pre-emergence, 16 g ai/ha, scale 0 to 100 (0 no effect, 100 complete control), read-out: Plant response rating, Morningglory): 0% | pest or weed control at 31 g/ha ([3]; Ipomoea, pre-emergence, 31 g ai/ha, 0 to 100 scale, 0 no effect, 100 complete control, read-out: Plant response rating, Morningglory): 0% | Morningglory plant response rating ([3]; 8 g ai/ha, scale 0 to 100): 0 | pest or weed control at 16 g/ha ([4]; Cynodon dactylon, pre-emergence, 16 g ai/ha, scale 0 to 100 (0 no effect, 100 complete control), read-out: Plant response rating, Bermudagrass): 90% | pest or weed control at 31 g/ha ([4]; Cynodon dactylon, pre-emergence, 31 g ai/ha, 0 to 100 scale, 0 no effect, 100 complete control, read-out: Plant response rating, Bermudagrass): 100% | pest or weed control at 62 g/ha ([4]; Cynodon dactylon, pre-emergence, 62 g ai/ha, scale 0 to 100, read-out: Plant response rating, Bermudagrass): 100% | Bermudagrass plant response rating ([4]; 8 g ai/ha, scale 0 to 100 (0 no effect, 100 complete control)): 60 | Cocklebur plant response rating ([5]; 8 g ai/ha, scale 0 to 100): 0 | pest or weed control at 16 g/ha ([5]; Xanthium strumarium, pre-emergence, 16 g ai/ha, scale 0 to 100 (0 no effect, 100 complete control), read-out: Plant response rating, Cocklebur): 0% | pest or weed control at 31 g/ha ([5]; Xanthium strumarium, pre-emergence, 31 g ai/ha, 0 to 100 scale, 0 no effect, 100 complete control, read-out: Plant response rating, Cocklebur): 0% | pest or weed control at 62 g/ha ([5]; Xanthium strumarium, pre-emergence, 62 g ai/ha, scale 0 to 100, read-out: Plant response rating, Cocklebur): 0% | pest or weed control at 16 g/ha ([6]; Chenopodium album, pre-emergence, 16 g ai/ha, scale 0 to 100 (0 no effect, 100 complete control), read-out: Plant response rating, Lambsquarters): 0% | pest or weed control at 31 g/ha ([6]; Chenopodium album, pre-emergence, 31 g ai/ha, 0 to 100 scale, 0 no effect, 100 complete control, read-out: Plant response rating, Lambsquarters): 0% | pest or weed control at 62 g/ha ([6]; Chenopodium album, pre-emergence, 62 g ai/ha, scale 0 to 100, read-out: Plant response rating, Lambsquarters): 0% | Lambsquarters plant response rating ([6]; 8 g ai/ha, scale 0 to 100): 0 | pest or weed control at 16 g/ha ([7]; Ambrosia, pre-emergence, 16 g ai/ha, scale 0 to 100 (0 no effect, 100 complete control), read-out: Plant response rating, Ragweed): 0% | pest or weed control at 31 g/ha ([7]; Ambrosia, pre-emergence, 31 g ai/ha, 0 to 100 scale, 0 no effect, 100 complete control, read-out: Plant response rating, Ragweed): 0% | pest or weed control at 62 g/ha ([7]; Ambrosia, pre-emergence, 62 g ai/ha, scale 0 to 100, read-out: Plant response rating, Ragweed): 0% | Ragweed plant response rating ([7]; 8 g ai/ha, scale 0 to 100): 0 | pest or weed control at 16 g/ha ([8]; Lolium multiflorum, pre-emergence, 16 g ai/ha, scale 0 to 100 (0 no effect, 100 complete control), read-out: Plant response rating, Ryegrass, Italian): 10% | pest or weed control at 31 g/ha ([8]; Lolium multiflorum, pre-emergence, 31 g ai/ha, 0 to 100 scale, 0 no effect, 100 complete control, read-out: Plant response rating, Ryegrass, Italian): 50% | pest or weed control at 62 g/ha ([8]; Lolium multiflorum, pre-emergence, 62 g ai/ha, scale 0 to 100, read-out: Plant response rating, Ryegrass, Italian): 100% | Ryegrass, Italian plant response rating ([8]; 8 g ai/ha, scale 0 to 100): 0 | pest or weed control at 16 g/ha ([9]; Helianthus annuus, pre-emergence, 16 g ai/ha, scale 0 to 100 (0 no effect, 100 complete control), read-out: Plant response rating, Sunflower): 0% | pest or weed control at 31 g/ha ([9]; Helianthus annuus, pre-emergence, 31 g ai/ha, 0 to 100 scale, 0 no effect, 100 complete control, read-out: Plant response rating, Sunflower): 0% | pest or weed control at 62 g/ha ([9]; Helianthus annuus, pre-emergence, 62 g ai/ha, scale 0 to 100, read-out: Plant response rating, Sunflower): 0% | Sunflower plant response rating ([9]; 8 g ai/ha, scale 0 to 100): 0 | plant injury at 16 g/ha (soybean (Glycine max); Glycine max, pre-emergence, 16 g ai/ha, scale 0 to 100 (0 no effect, 100 complete control), read-out: Plant response rating, Soybean): 0% | plant injury at 31 g/ha (soybean (Glycine max); Glycine max, pre-emergence, 31 g ai/ha, 0 to 100 scale, 0 no effect, 100 complete control, read-out: Plant response rating, Soybean): 0% | plant injury at 62 g/ha (soybean (Glycine max); Glycine max, pre-emergence, 62 g ai/ha, scale 0 to 100, read-out: Plant response rating, Soybean): 0% | Soybean plant response rating (soybean (Glycine max); 8 g ai/ha, scale 0 to 100): 0 | pest or weed control at 16 g/ha ([10]; Abutilon theophrasti, pre-emergence, 16 g ai/ha, scale 0 to 100 (0 no effect, 100 complete control), read-out: Plant response rating, Velvetleaf): 0% | pest or weed control at 31 g/ha ([10]; Abutilon theophrasti, pre-emergence, 31 g ai/ha, 0 to 100 scale, 0 no effect, 100 complete control, read-out: Plant response rating, Velvetleaf): 0% | pest or weed control at 62 g/ha ([10]; Abutilon theophrasti, pre-emergence, 62 g ai/ha, scale 0 to 100, read-out: Plant response rating, Velvetleaf): 0% | Velvetleaf plant response rating ([10]; 8 g ai/ha, scale 0 to 100): 0 | Johnsongrass plant response rating ([11]; 8 g ai/ha, scale 0 to 100): 0 | pest or weed control at 16 g/ha ([11]; Sorghum halepense, pre-emergence, 16 g ai/ha, scale 0 to 100 (0 no effect, 100 complete control), read-out: Plant response rating, Johnsongrass): 50% | pest or weed control at 31 g/ha ([11]; Sorghum halepense, pre-emergence, 31 g ai/ha, 0 to 100 scale, 0 no effect, 100 complete control, read-out: Plant response rating, Johnsongrass): 50% | pest or weed control at 62 g/ha ([11]; Sorghum halepense, pre-emergence, 62 g ai/ha, scale 0 to 100, read-out: Plant response rating, Johnsongrass): 98% | pest or weed control at 16 g/ha ([12]; Eleusine indica, pre-emergence, 16 g ai/ha, scale 0 to 100 (0 no effect, 100 complete control), read-out: Plant response rating, Goosegrass): 80% | pest or weed control at 31 g/ha ([12]; Eleusine indica, pre-emergence, 31 g ai/ha, 0 to 100 scale, 0 no effect, 100 complete control, read-out: Plant response rating, Goosegrass): 100% | pest or weed control at 62 g/ha ([12]; Eleusine indica, pre-emergence, 62 g ai/ha, scale 0 to 100, read-out: Plant response rating, Goosegrass): 100% | Goosegrass plant response rating ([12]; 8 g ai/ha, scale 0 to 100): 80
